# Assay results published in US9359345B2, “Thiazole derivatives as inhibitors of Bruton's tyrosine kinase” (Hoffmann-La Roche Inc., priority 2012, dated 2016).
# Biological target: Bruton's Tyrosine Kinase (BTK), inactivated state (Homo sapiens (Human), UniProt Q06187)
# Experiment: Bruton's Tyrosine Kinase (BTK) Inhibition TR-FRET (Time Resolved FRET) competition assay
# Format: binding
# Settings: Kinase Tracer 178, BTK-Eu, 18-24 h at 14° C.
# Description: Bruton's Tyrosine Kinase (BTK) Inhibition TR-FRET (Time Resolved FRET) Assay
# This BTK competition assay measures compound potency (IC50) for the inactivated state of Bruton's Tyrosine Kinase using FRET (Forster/Fluorescence Resonance Energy Transfer) technology. The BTK-Eu complex was incubated on ice one hour prior to use at a starting concentration of 50 nM BTK-Bioease™: 10 nM Eu-streptavidin (Perkin-Elmer Catalog# AD0062). The assay buffer consisted of 20 mM HEPES (pH 7.15), 0.1 mM DTT, 10 mM MgCl2, 0.5 mg/ml BSA with 3% Kinase Stabilizer (Fremont Biosolutions, Catalog # STB-K02). After 1 h, the reaction mixture from above was diluted 10 fold in assay buffer to make 5 nM BTK: 1 nM Eu-Streptavidin complex (donor fluorophore). 18 μl of a mixture of 0.11 nM BTK-Eu and 0.11 nM Kinase Tracer 178 (Invitrogen, Catalog # PV5593,) with BTK-Eu alone as no negative control, was then dispensed into 384-well flat bottom plates (Greiner, 784076). Compounds to be tested in assay were prepared as 10× concentrations and serial dilution in half-log increments was performed in DMSO so as to generate 10 point curves. To initiate the FRET reaction, compounds prepared as 10× stock in DMSO was added to the plates and the plates were incubated 18-24 h at 14° C.
# After the incubation the plates were read on a BMG Pherastar Fluorescent plate reader (or equivalent) and used to measure the emission energy from the europium donor fluorophore (620 nm emission) and the FRET (665 nm emission). The negative control well values were averaged to obtain the mean minimum. The positive “no inhibitor” control wells were averaged to obtain the mean maximum. Percent of maximal FRET was calculated using following equation: % max FRET=100×[(FSRcmpd−FSRmean min)/(FSRmean max−FSRmean min)] where FSR=FRET Signal ratio. % Max FRET curves were plotted in Activity Base (Excel) and the IC50(%), hill slope, z′ and % CV were determined. The mean IC50 and standard deviation will be derived from duplicate curves (singlet inhibition curves from two independent dilutions) using Microsoft Excel.
# Sequence of Bruton's Tyrosine Kinase (BTK), inactivated state (Q06187 whole entry): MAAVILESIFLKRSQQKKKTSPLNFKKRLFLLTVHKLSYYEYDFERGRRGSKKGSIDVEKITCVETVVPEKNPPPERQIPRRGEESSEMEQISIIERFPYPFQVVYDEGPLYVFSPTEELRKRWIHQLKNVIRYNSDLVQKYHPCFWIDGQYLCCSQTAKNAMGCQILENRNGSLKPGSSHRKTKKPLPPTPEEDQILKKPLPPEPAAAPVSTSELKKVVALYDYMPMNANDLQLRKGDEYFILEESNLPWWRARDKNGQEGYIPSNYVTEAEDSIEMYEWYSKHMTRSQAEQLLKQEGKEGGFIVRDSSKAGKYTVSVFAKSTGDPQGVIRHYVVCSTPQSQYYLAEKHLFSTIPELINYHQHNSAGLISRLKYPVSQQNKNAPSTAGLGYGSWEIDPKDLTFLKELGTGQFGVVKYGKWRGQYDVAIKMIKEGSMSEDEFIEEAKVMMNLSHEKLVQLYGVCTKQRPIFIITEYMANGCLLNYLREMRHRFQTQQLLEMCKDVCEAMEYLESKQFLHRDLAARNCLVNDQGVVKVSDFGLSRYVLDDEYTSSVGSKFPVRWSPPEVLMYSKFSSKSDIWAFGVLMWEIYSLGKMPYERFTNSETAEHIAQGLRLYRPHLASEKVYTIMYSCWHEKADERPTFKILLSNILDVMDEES
row,SMILES,IC50 [µM]
1,"NC(=O)c1nc(N2CCC[C@@H](NC(=O)N3Cc4ccc(Cl)cc4C3)C2)sc1Nc1ccccn1 [Compound 2, 5-Chloro-1,3-dihydro-isoindole-2-carboxylic acid {(R)-1-[4-carbamoyl-5-(pyridin-2-ylamino)-thiazol-2-yl]-piperidin-3-yl}-amide]",7.74
2,"CC(C)(C)c1ccc(C(=O)N[C@@H]2CCCN(c3nc(C(N)=O)c(Nc4ccccn4)s3)C2)cn1 [Compound 4, 6-tert-Butyl-N-{(R)-1-[4-carbamoyl-5-(pyridin-2-ylamino)-thiazol-2-yl]-piperidin-3-yl}-nicotinamide]",1.73
3,"NC(=O)c1nc(N2CCC[C@@H](NC(=O)Cc3ccccc3)C2)sc1Nc1ccccn1 [Compound 5, 2-((R)-3-Phenylacetylamino-piperidin-1-yl)-5-(pyridin-2-ylamino)-thiazole-4-carboxylic acid amide]",6.24
4,"Cc1cccc(CC(=O)N[C@@H]2CCCN(c3nc(C(N)=O)c(Nc4ccccn4)s3)C2)c1 [Compound 6, 5-(Pyridin-2-ylamino)-2-[(R)-3-(2-m-tolyl-acetylamino)-piperidin-1-yl]-thiazole-4-carboxylic acid amide]",7.51
5,"CC(C)(C)c1ccc(C(=O)N[C@@H]2CCCN(c3nc(C(N)=O)c(Nc4ccccn4)s3)C2)cc1 [Compound 7, 2-[(R)-3-(4-tert-Butyl-benzoylamino)-piperidin-1-yl]-5-(pyridin-2-ylamino)-thiazole-4-carboxylic acid amide]",0.47
6,"CS(=O)(=O)N[C@@H]1CCCN(c2nc(C(N)=O)c(Nc3ccccn3)s2)C1 [Compound 8, 2-((R)-3-Methanesulfonylamino-piperidin-1-yl)-5-(pyridin-2-ylamino)-thiazole-4-carboxylic acid amide]",5.07
7,"CC(C)S(=O)(=O)N[C@@H]1CCCN(c2nc(C(N)=O)c(Nc3ccccn3)s2)C1 [Compound 10, 2-[(R)-3-(Propane-2-sulfonylamino)-piperidin-1-yl]-5-(pyridin-2-ylamino)-thiazole-4-carboxylic acid amide]",5.8

# Now from value to molecule:
row,IC50 [µM],SMILES
1,1.21,"CC(C)(C)OC(=O)N[C@@H]1CCCN(c2nc(C(N)=O)c(Nc3ccccn3)s2)C1 [Compound 3, {(R)-1-[4-Carbamoyl-5-(pyridin-2-ylamino)-thiazol-2-yl]-piperidin-3-yl}-carbamic acid tert-butyl ester]"
2,1.61,"NC(=O)c1nc(N2CCC[C@@H](NS(=O)(=O)c3ccccc3)C2)sc1Nc1ccccn1 [Compound 9, 2-((R)-3-Benzenesulfonylamino-piperidin-1-yl)-5-(pyridin-2-ylamino)-thiazole-4-carboxylic acid amide]"
3,6.03,"CC(=O)N[C@@H]1CCCN(c2nc(C(N)=O)c(Nc3ccccn3)s2)C1 [Compound 12, 2-((R)-3-Acetylamino-piperidin-1-yl)-5-(pyridin-2-ylamino)-thiazole-4-carboxylic acid amide]"
